The values that follow come from US20200055891A1, “NOVEL PHOSPHOTRIAZOLE MRNA 5'-END CAP ANALOGS, COMPOSITION COMPRISING THE SAME, RNA MOLECULE INCORPORATING THE SAME, USES THEREOF AND METHOD OF SYNTHESIZING RNA MOLECULE, PROTEIN OR PEPTIDE” (UNIWERSYTET WARSZAWSKI, priority 2016, published 2020).

Data set [1] addresses T1, eIF4E (Mus musculus, UniProt P63073). Conditions: reference cap analogues, values from refs 42/43; cited from earlier work.
In data set [2] the target is T1, eIF4E. Put plainly: Association constants (KAS) of cap analogue-eIF4E complexes, fluorescence quenching titration. The format is binding. Conditions: 20° C., 50 mM Hepes/KOH pH 7.20, 100 mM KCl; weighted average of triplicate. Here is the method: Association constants for cap analogue-eIF4E complexes were determined using fluorescence quenching titration method as described previously.^42 Measurements were performed using a quartz cuvette with optical path length of 4 mm for absorption and 10 mm for emission on LS-50B spectrofluorometer Perkin-Elmer Co. (Waltham, Mass., USA). Titration experiments were carried out at 20° C. in 50 mM Hepes/KOH buffer, pH 7.20 containing 100 mM KCl, 0.5 mM EDTA, and 1 mM DTT. During the experiment 1 μl aliquots of ligand solution was added to the 1400 μl of 0.1 μM protein solution. Protein fluorescence was monitored at 337 or 345 nm (excitation 280 or 295 nm, respectively). For data analysis fluorescence intensity correction was applied for sample dilution and inner filter effect. Association constants were determined by fitting theoretical dependence of fluorescence intensity on total ligand concentration. Each experiment was performed in triplicate, the association constants were calculated as weighted averages.

Another data set concerns the target T2, SP6 RNA polymerase (Enterobacteria phage SP6, UniProt P06221).
T2 construct: purchased New England BioLabs
T2 sequence (P06221 1-874): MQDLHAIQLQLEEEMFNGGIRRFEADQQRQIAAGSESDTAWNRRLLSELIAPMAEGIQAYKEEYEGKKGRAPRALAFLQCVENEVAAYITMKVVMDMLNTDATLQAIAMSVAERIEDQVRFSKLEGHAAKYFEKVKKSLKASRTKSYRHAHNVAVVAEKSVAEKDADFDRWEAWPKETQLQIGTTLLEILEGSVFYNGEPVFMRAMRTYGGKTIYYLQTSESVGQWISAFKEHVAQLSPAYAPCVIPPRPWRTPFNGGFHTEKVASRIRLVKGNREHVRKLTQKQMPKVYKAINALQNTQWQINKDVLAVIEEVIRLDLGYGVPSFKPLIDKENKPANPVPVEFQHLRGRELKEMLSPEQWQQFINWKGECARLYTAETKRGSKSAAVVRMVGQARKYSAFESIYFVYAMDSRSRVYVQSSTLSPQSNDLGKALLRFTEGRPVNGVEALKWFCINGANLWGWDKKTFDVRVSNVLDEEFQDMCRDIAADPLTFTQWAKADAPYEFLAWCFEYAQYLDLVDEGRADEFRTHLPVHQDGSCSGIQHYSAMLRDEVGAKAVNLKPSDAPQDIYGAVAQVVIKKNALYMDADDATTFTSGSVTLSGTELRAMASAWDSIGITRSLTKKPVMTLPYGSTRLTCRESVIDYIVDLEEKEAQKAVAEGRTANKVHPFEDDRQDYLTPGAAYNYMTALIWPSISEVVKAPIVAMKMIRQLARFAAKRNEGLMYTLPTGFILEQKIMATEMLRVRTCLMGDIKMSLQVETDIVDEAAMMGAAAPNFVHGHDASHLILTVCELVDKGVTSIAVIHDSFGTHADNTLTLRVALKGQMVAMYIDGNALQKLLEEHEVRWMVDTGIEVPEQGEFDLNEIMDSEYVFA
Put plainly: Capping efficiency: incorporation of cap analogues at the 5′ end of short transcripts by in vitro transcription. The format is biochemical. The conditions noted are these: 1.25 mM cap analogue, 0.125 mM GTP. The procedure: Prior to in vitro transcription annealing of a template was performed. DNA1 (SEQ ID NO: 1) and DNA2 (SEQ ID NO: 2) (20 μM each) were incubated in the presence of 4 mM Tris-HCl pH 8.0, 15 mM NaCl and 0.1 mM EDTA at 95° C. for 2 min and then at room temperature for 30 min. After 10-fold dilution the mixture was directly used for in vitro transcription.
The reaction was quenched by addition of 2 μl of 0.5 M EDTA pH 8.0 and purified with RNA Clean&Concentrator-5 kit (Zymo Research) to afford capped RNA1 (SEQ ID NO: 4) strands.
To reduce heterogeneity, each capped RNA1 (11.42 ng/μl, ca. 1 μM) was incubated in presence of 50 mM Tris-HCl pH 8.0, 50 mM MgCl2, RiboLock RNase Inhibitor (ThermoFisher Scientific) (2.0 U/μl) and DNA3 (SEQ ID NO: 3) (1 μM) at 37° C. for 1 h to afford RNA2 (SEQ ID NO: 5).^44 The reaction was stopped by freezing in liquid nitrogen and directly analyzed by PAGE (FIG. 3).
Relative bands intensity was determined using CLIQS v1.0 program.

In data set [3] the test system is Rabbit Reticulocyte Lysate. As to the kind of experiment: Translation efficiency of capped firefly luciferase mRNA in Rabbit Reticulocyte Lysate System. Conditions: relative, m^7GpppG = 1. Type of data set: biochemical. Here is the method:
The reaction was quenched by addition of 2 μl of 0.5 M EDTA pH 8.0 and purified with NucleoSpin RNA Clean-up XS kit (Macherey-Nagel) to afford luciferase-coding RNA strands capped with appropriate cap analogue.
For each capped luciferase-coding RNA four diluted solutions were prepared—3.0 ng/μl, 1.5 ng/μl, 0.75 ng/μl, 0.375 ng/μl. Translation studies were performed using Rabbit Reticulocyte Lysate System (Promega). 9 μl of a mixture containing Rabbit Reticulocyte Lysate (4 μl), Amino Acid Mixture Minus Leucine (0.05 μl of 1 mM solution), Amino Acid Mixture Minus Methionine (0.05 μl of 1 mM solution), potassium acetate (1.9 μl of 1 M solution), MgCl2 (0.4 μl of 25 mM solution) and 2.1 μl of water was incubated at 30° C. for 1 h after which 1 μl of appropriate luciferase-coding RNA solution was added and incubation of the reaction was continued at 37° C. for another hour. The reaction was stopped by freezing in liquid nitrogen.
Translation efficiency was determined using Luciferase Reporter System (Promega). The samples were defrosted just before the experiment. To every sample 50 μl of Luciferase Assay Reagent was added just before measurement of luminescence on Synergy H1 Microplate Reader (Bio Tek). The measurement were performed for every four samples independently due to low stability of luminescence signal. The results are presented on. FIG. 4 as proportions between regression coefficients of linear relationships between capped luciferase-coding RNA concentration in translation reaction (300 pg/μl, 150 pg/μl, 75 pg/μl, 37.5 pg/μl) and corresponding luminescence signal.

The nature of data set [4]: Hydrolysis in D2O seen in NMR spectra. The conditions noted are these: dissolved in D2O just before NMR measurement; given if higher than 5%. Type of data set: physicochemical. Here is the method: Some cap analogues hydrolyzed in D2O gradually. Although pure compounds (see HPLC profiles, Supporting Information 2) were dissolved in D2O just before measurements, the spectra indicated some level of hydrolysis. % of hydrolysis is provided along with compound characterization data, if higher than 5%.

Like-named read-outs stand apart in the source and are kept apart here.

T1 sequence (P63073 28-217 limits assumed): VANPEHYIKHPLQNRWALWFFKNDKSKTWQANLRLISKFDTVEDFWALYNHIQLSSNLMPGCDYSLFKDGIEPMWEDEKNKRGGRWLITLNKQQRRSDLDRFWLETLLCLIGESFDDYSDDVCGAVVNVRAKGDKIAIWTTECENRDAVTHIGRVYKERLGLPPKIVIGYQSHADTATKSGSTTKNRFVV

In the case of `Cn1c[n+]([C@@H]2O[C@H](COP(=O)(O)OP(=O)([O-])O)[C@@H](O)[C@H]2O)c2nc(N)[nH]c(=O)c21` [m^7GDP], the KAS on eIF4E [1] is 20.4 ± 1.5^42 μM^−1.

On eIF4E [2], `C[n+]1cn([C@@H]2O[C@H](COP(=O)(O)NCCn3cc(P(=O)([O-])OP(=O)(O)OP(=O)(O)OC[C@H]4O[C@@H](n5cnc6c(=O)[nH]c(N)nc65)C(O)C4O)nn3)C(O)C2O)c2nc(N)[nH]c(=O)c21` (stereo partly shown) [m^7GpNHC2H4tpppG, m^7GpNHC2H4-triazole-pppG] displayed a KAS of 3.10 ± 0.18 µM⁻¹. The Capping efficiency on SP6 RNA polymerase is reported as 57%. Further, the Translation efficiency in data set [3] is listed as 0.103 ± 0.027. Also, the “hydrolysis in D2O” value in data set [4] is 9%.

In turn, “m2^7,2′-OGppp-triazole-C2H4NHpG [m2^7,2′-OGppptC2H4NHpG]” returned a Capping efficiency at SP6 RNA polymerase of 41%. Moreover, the Translation efficiency in data set [3] is 1.462 ± 0.182. Further, the “hydrolysis in D2O” value in data set [4] is listed as 8%.

Molecule `Cn1c[n+]([C@@H]2O[C@H](COP(=O)(O)OP(=O)([O-])OP(=O)(O)OC[C@H]3O[C@@H](n4cnc5c(=O)[nH]c(N)nc54)[C@H](O)[C@@H]3O)[C@@H](O)[C@H]2O)c2nc(N)[nH]c(=O)c21` [m^7GpppG, reference compound] returned a Capping efficiency at SP6 RNA polymerase of 90%. Besides, the Translation efficiency in data set [3] is listed as 1. For the same molecule, at eIF4E [1], the KAS was 12.5 ± 0.3^43 μM^−1.

For the molecule `CO[C@H]1[C@@H](O)[C@H]([n+]2cn(C)c3c(=O)[nH]c(N)nc32)O[C@@H]1COP(=O)([O-])OP(=O)(O)OP(=O)(O)OC[C@H]1O[C@@H](n2cnc3c(=O)[nH]c(N)nc32)[C@H](O)[C@@H]1O` [m2^7,3′-OGpppG, reference compound], at SP6 RNA polymerase, the Capping efficiency came out at 83%. Also, in data set [3], the Translation efficiency is given as 1.526 ± 0.043. Moreover, the KAS at eIF4E [1] is listed as 10.2 ± 0.6^43 μM^−1.

Take `C[n+]1cn([C@@H]2O[C@H](COP(=O)(O)OP(=O)([O-])OP(=O)(O)Cc3cn(CCNP(=O)(O)OC[C@H]4O[C@@H](n5cnc6c(=O)[nH]c(N)nc65)C(O)C4O)nn3)C(O)C2O)c2nc(N)[nH]c(=O)c21` (stereo partly shown) [m^7GpppCH2tC2H4NHpG, m^7GpppCH2-triazole-C2H4NHpG]: the KAS at eIF4E [2] was found to be 18.21 ± 0.72 µM⁻¹. Further, the Capping efficiency at SP6 RNA polymerase came to 44%. In data set [3], the Translation efficiency was found to be 0.94 ± 0.11. The “hydrolysis in D2O” value in data set [4] came out at 9%.

In turn, `C[n+]1cn([C@@H]2O[C@H](COP(=O)([O-])OP(=O)(O)NCCn3cc(CCP(=O)(O)OP(=O)(O)OC[C@H]4O[C@@H](n5cnc6c(=O)[nH]c(N)nc65)[C@@H](O)C4O)nn3)C(O)[C@@H]2O)c2nc(N)[nH]c(=O)c21` (stereo partly shown) [m^7GppNHC2H4tC2H4ppG, m^7GppNHC2H4-triazole-C2H4ppG] came in with a Capping efficiency on SP6 RNA polymerase of 30%. Moreover, the Translation efficiency in data set [3] was found to be 0.239 ± 0.028. Also, the “hydrolysis in D2O” value in data set [4] was 11%.

Consider `C[n+]1cn([C@@H]2O[C@H](COP(=O)(O)OP(=O)(O)OP(=O)([O-])c3cn(CCNP(=O)(O)OC[C@H]4O[C@@H](n5cnc6c(=O)[nH]c(N)nc65)C(O)C4O)nn3)C(O)C2O)c2nc(N)[nH]c(=O)c21` (stereo partly shown) [m^7GppptC2H4NHpG, m^7Gppp-triazole-C2H4NHpG], for which the KAS at eIF4E [2] stood at 21.94 ± 0.69 µM⁻¹. This molecule came in with a Capping efficiency on SP6 RNA polymerase of 52%. In addition, in data set [3], the Translation efficiency was determined as 0.89 ± 0.11. For the same molecule, the “hydrolysis in D2O” value in data set [4] amounted to 13%.

With `C[n+]1cn([C@@H]2O[C@H](COP(=O)(O)NCCn3cc(CP(=O)(O)OP(=O)([O-])OC[C@H]4O[C@@H](n5cnc6c(=O)[nH]c(N)nc65)C(O)C4O)nn3)C(O)C2O)c2nc(N)[nH]c(=O)c21` (stereo partly shown) [m^7GpNHC2H4tCH2ppG, m^7GpNHC2H4-triazole-CH2ppG], the Capping efficiency on SP6 RNA polymerase was found to be 47%. Besides, in data set [3], the Translation efficiency is 0.085 ± 0.017. Also, in data set [4], the “hydrolysis in D2O” value is 11%.
